Patent US7579356B2, “Thia-tetraazaacenaphthylene kinase inhibitors” (Janssen Pharmaceutica NV, priority 2005, dated 2009)

Molecular target: T1, HER-2 (Homo sapiens, UniProt P04626)
T1 construct: His6 with thrombin site (N); purchased Proqinase (Freiburg, Germany)
Experiment: HER-2 Kinase Assay
Format: biochemical
Conditions: for inhibition at 1 µM: test concentration of 1 μM; for IC50: value in parentheses
In short: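 GST/HIS6-tagged HER-2 aa 679–1255 kinase with biotinylated polyGluTyr (1.5 ng/μL), 1 μM ATP plus γ-33P-ATP, Mg2+/Mn2+, DTT, Hepes pH 7.5; 1 h at 30 °C. Substrate phosphorylation captured on streptavidin scintillation plates after EDTA/PBS washes; values are % inhibition at 1 μM or IC50.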

T1 sequence (P04626 679-1255): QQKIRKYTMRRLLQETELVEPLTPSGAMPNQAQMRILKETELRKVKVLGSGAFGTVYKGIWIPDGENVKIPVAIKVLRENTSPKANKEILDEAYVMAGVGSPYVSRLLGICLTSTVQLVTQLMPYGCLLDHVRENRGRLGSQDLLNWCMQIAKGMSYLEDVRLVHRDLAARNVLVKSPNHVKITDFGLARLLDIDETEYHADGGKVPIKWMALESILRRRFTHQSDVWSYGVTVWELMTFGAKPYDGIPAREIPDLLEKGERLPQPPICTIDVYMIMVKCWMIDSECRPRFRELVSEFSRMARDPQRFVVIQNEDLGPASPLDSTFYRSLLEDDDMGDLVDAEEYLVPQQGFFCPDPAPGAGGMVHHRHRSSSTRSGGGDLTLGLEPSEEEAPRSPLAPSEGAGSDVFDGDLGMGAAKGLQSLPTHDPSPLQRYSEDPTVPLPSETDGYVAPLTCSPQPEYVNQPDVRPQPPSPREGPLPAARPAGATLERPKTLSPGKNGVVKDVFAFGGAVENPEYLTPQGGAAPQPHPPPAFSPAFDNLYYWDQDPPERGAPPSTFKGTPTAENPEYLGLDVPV

Row | SMILES | inhibition at 1 µM [%] | IC50 [nM]
1 | COc1cc(N2C(=O)Nc3c(C(=O)Nc4ccc(CN5CCCC5)cc4)sc4ncnc2c34)c(Cl)cc1Cl [Cpd 43, 5-(2,4-dichloro-5-methoxy-phenyl)-4-oxo-4,5-dihydro-3H-1-thia-3,5,6,8-tetraaza-acenaphthylene-2-carboxylic acid (4-pyrrolidin-1-ylmethyl-phenyl)-amide] | 21 | 
2 | COc1ccc(Cl)c(N2C(=O)Nc3c(C(=O)Nc4ccc(OC)c(OC)c4)sc4ncnc2c34)c1 [Cpd 49, 5-(2-chloro-5-methoxy-phenyl)-4-oxo-4,5-dihydro-3H-1-thia-3,5,6,8-tetraaza-acenaphthylene-2-carboxylic acid (3,4-dimethoxy-phenyl)-amide] | -5 | 
3 | COc1ccc(Cl)c(N2C(=O)Nc3c(C(=O)Nc4ccc(OCCN5CCOCC5)c(OC)c4)sc4ncnc2c34)c1 [Cpd 50, 5-(2-chloro-5-methoxy-phenyl)-4-oxo-4,5-dihydro-3H-1-thia-3,5,6,8-tetraaza-acenaphthylene-2-carboxylic acid [3-methoxy-4-(2-morpholin-4-yl-ethoxy)-phenyl]-amide] | -5 | 
4 | COc1ccc(Cl)c(N2C(=O)Nc3c(C(=O)Nc4ccc(CN5CCOCC5)cc4)sc4ncnc2c34)c1 [Cpd 51, 5-(2-chloro-5-methoxy-phenyl)-4-oxo-4,5-dihydro-3H-1-thia-3,5,6,8-tetraaza-acenaphthylene-2-carboxylic acid (4-morpholin-4-ylmethyl-phenyl)-amide] | 28 | 
5 | COC(=O)c1sc2ncnc3c2c1NC(=O)N3c1c(Cl)ccc2c1OCO2 [Cpd 54, 5-(5-chloro-benzo[1,3]dioxol-4-yl)-4-oxo-4,5-dihydro-3H-1-thia-3,5,6,8-tetraaza-acenaphthylene-2-carboxylic acid methyl ester] | 3 | 
6 | COc1cc(N2C(=O)Nc3c(C(=O)Nc4ccc(CN5CCN(C)CC5)cc4)sc4ncnc2c34)c(Cl)cc1Cl [Cpd 60] | 22 | 
7 | O=C(Nc1ccc(CN2CCOCC2)cc1)c1sc2ncnc3c2c1NC(=O)N3c1c(Cl)ccc2c1OCO2 [Cpd 62, 5-(5-chloro-benzo[1,3]dioxol-4-yl)-4-oxo-4,5-dihydro-3H-1-thia-3,5,6,8-tetraaza-acenaphthylene-2-carboxylic acid (4-morpholin-4-ylmethyl-phenyl)-amide] |  | 528
8 | O=C(Nc1ccc(NCCCN2CCOCC2)nc1)c1sc2ncnc3c2c1NC(=O)N3c1cccc(Br)c1 [Cpd 64, 5-(3-bromo-phenyl)-4-oxo-4,5-dihydro-3H-1-thia-3,5,6,8-tetraaza-acenaphthylene-2-carboxylic acid [6-(3-morpholin-4-yl-propylamino)-pyridin-3-yl]-amide] | 57 | 447
9 | O=C(Nc1ccc(CN2CCCCC2)cc1)c1sc2ncnc3c2c1NC(=O)N3c1ccc(OCc2ccccn2)c(Cl)c1 [Cpd 89, 5-[3-chloro-4-(pyridin-2-ylmethoxy)-phenyl]-4-oxo-4,5-dihydro-3H-1-thia-3,5,6,8-tetraaza-acenaphthylene-2-carboxylic acid (4-piperidin-1-ylmethyl-phenyl)-amide] | 93 | 69
10 | CN1CCN(Cc2ccc(NC(=O)c3sc4ncnc5c4c3NC(=O)N5c3ccc(OCc4ccccn4)c(Cl)c3)cc2)CC1 [Cpd 90, 5-[3-chloro-4-(pyridin-2-ylmethoxy)-phenyl]-4-oxo-4,5-dihydro-3H-1-thia-3,5,6,8-tetraaza-acenaphthylene-2-carboxylic acid [4-(4-methyl-piperazin-1-ylmethyl)-phenyl]-amide] | 82 | 503
11 | O=C(Nc1ccc(CN2CCCCC2)cc1)c1sc2ncnc3c2c1NC(=O)N3c1ccc(Oc2ccccc2)cc1 [Cpd 96, 4-oxo-5-(4-phenoxy-phenyl)-4,5-dihydro-3H-1-thia-3,5,6,8-tetraaza-acenaphthylene-2-carboxylic acid (4-piperidin-1-ylmethyl-phenyl)-amide] | 98 | 41
12 | O=C(Nc1ccc(CN2CCOCC2)cc1)c1sc2ncnc3c2c1NC(=O)N3c1ccc(Oc2ccccc2)cc1 [Cpd 97, 4-oxo-5-(4-phenoxy-phenyl)-4,5-dihydro-3H-1-thia-3,5,6,8-tetraaza-acenaphthylene-2-carboxylic acid (4-morpholin-4-ylmethyl-phenyl)-amide] | 97 | 27
13 | CN1CCN(Cc2ccc(NC(=O)c3sc4ncnc5c4c3NC(=O)N5c3ccc(Oc4ccccc4)cc3)cc2)CC1 [Cpd 98, 4-oxo-5-(4-phenoxy-phenyl)-4,5-dihydro-3H-1-thia-3,5,6,8-tetraaza-acenaphthylene-2-carboxylic acid [4-(4-methyl-piperazin-1-ylmethyl)-phenyl]-amide] | 95 | 88
14 | COc1cc(NC(=O)c2sc3ncnc4c3c2NC(=O)N4c2ccc(Oc3ccccc3)cc2)ccc1OCCN1CCCCC1 [Cpd 100, 4-oxo-5-(4-phenoxy-phenyl)-4,5-dihydro-3H-1-thia-3,5,6,8-tetraaza-acenaphthylene-2-carboxylic acid [3-methoxy-4-(2-piperidin-1-yl-ethoxy)-phenyl]-amide] | 95 | 111
15 | O=C(Nc1ccc(CN2CCOCC2)cc1)c1sc2ncnc3c2c1NC(=O)N3c1c(Cl)cccc1Cl [Cpd 104, 5-(2,6-dichloro-phenyl)-4-oxo-4,5-dihydro-3H-1-thia-3,5,6,8-tetraaza-acenaphthylene-2-carboxylic acid (4-morpholin-4-ylmethyl-phenyl)-amide] |  | 7070
16 | O=C(Nc1ccc(CN2CCOCC2)cc1)c1sc2ncnc3c2c1NC(=O)N3c1ccc(Oc2ccccc2)c(F)c1 [Cpd 113, 5-(3-fluoro-4-phenoxy-phenyl)-4-oxo-4,5-dihydro-3H-1-thia-3,5,6,8-tetraaza-acenaphthylene-2-carboxylic acid (4-morpholin-4-ylmethyl-phenyl)-amide] | 83 | 89
17 | O=C(Nc1ccc(CN2CCOCC2)cc1)c1sc2ncnc3c2c1NC(=O)N3c1ccc(N2CCOCC2)cc1 [Cpd 123, 5-(4-morpholin-4-yl-phenyl)-4-oxo-4,5-dihydro-3H-1-thia-3,5,6,8-tetraaza-acenaphthylene-2-carboxylic acid (4-morpholin-4-ylmethyl-phenyl)-amide] |  | > 100000
18 | O=C(Nc1ccc(CN2CCCCC2)cc1)c1sc2ncnc3c2c1NC(=O)N3c1ccc(Sc2ccccc2)cc1 [Cpd 169, 4-oxo-5-(4-phenylsulfanyl-phenyl)-4,5-dihydro-3H-1-thia-3,5,6,8-tetraaza-acenaphthylene-2-carboxylic acid (4-piperidin-1-ylmethyl-phenyl)-amide] |  | 26
19 | O=C(Nc1ccc(CN2CCOCC2)cc1)c1sc2ncnc3c2c1NC(=O)N3c1ccc(Sc2ccccc2)cc1 [Cpd 178, 4-oxo-5-(4-phenylsulfanyl-phenyl)-4,5-dihydro-3H-1-thia-3,5,6,8-tetraaza-acenaphthylene-2-carboxylic acid (4-morpholin-4-ylmethyl-phenyl)-amide] |  | 56
